# Assay results from PubChem BioAssay AID2060907 (Molecular Pharmacology Branch, DTP, NCI, 2025).
# System: 388556-164-R-J1-PDC complex spheroid viability
# Assay: Anticancer human tumor 388556-164-R-J1-PDC patient-derived colon adenocarcinoma cell line growth inhibition [RAS]
# Conditions: for IC50: curve of first compound; for viability, T/C: stronger effect = lower value
# Method in brief: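 Multi-cell-type spheroids: tumor cells plus HUVEC endothelial cells and mesenchymal stem cells. RAS-pathway inhibitors were combined with targeted agents, each dosed in half-log steps down from clinical Cmax, or from 10 microM when Cmax was unknown.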
# [1] = second compound 0.00316 µM, first compound 0.000949 µM
# [2] = second compound 0.00316 µM, first compound 0.003 µM
# [3] = second compound 0.00316 µM, first compound 0.00949 µM
# [4] = second compound 0.00316 µM, first compound 0.03 µM
# [5] = second compound 0.00316 µM, first compound 0.0949 µM
# [6] = second compound 0.00316 µM, first compound 0.3 µM
# [7] = second compound 0.01 µM, first compound 0.000949 µM
# [8] = second compound 0.01 µM, first compound 0.003 µM
# [9] = second compound 0.01 µM, first compound 0.00949 µM
# [10] = second compound 0.01 µM, first compound 0.03 µM
# [11] = second compound 0.01 µM, first compound 0.0949 µM
# [12] = second compound 0.01 µM, first compound 0.3 µM
# [13] = second compound 0.0316 µM, first compound 0.000949 µM
# [14] = second compound 0.0316 µM, first compound 0.003 µM
# [15] = second compound 0.0316 µM, first compound 0.00949 µM
# [16] = second compound 0.0316 µM, first compound 0.03 µM
# [17] = second compound 0.0316 µM, first compound 0.0949 µM
# [18] = second compound 0.0316 µM, first compound 0.3 µM
# [19] = second compound 0.1 µM, first compound 0.000949 µM
# [20] = second compound 0.1 µM, first compound 0.003 µM
# [21] = second compound 0.1 µM, first compound 0.00949 µM
# [22] = second compound 0.1 µM, first compound 0.03 µM
# [23] = second compound 0.1 µM, first compound 0.0949 µM
# [24] = second compound 0.1 µM, first compound 0.3 µM
# [25] = second compound 0.316 µM, first compound 0.000949 µM
# [26] = second compound 0.316 µM, first compound 0.003 µM
# [27] = second compound 0.316 µM, first compound 0.00949 µM
# [28] = second compound 0.316 µM, first compound 0.03 µM
# [29] = second compound 0.316 µM, first compound 0.0949 µM
# [30] = second compound 0.316 µM, first compound 0.3 µM
# [31] = second compound 1 µM, first compound 0.000949 µM
# [32] = second compound 1 µM, first compound 0.003 µM
# [33] = second compound 1 µM, first compound 0.00949 µM
# [34] = second compound 1 µM, first compound 0.03 µM
# [35] = second compound 1 µM, first compound 0.0949 µM
# [36] = second compound 1 µM, first compound 0.3 µM
# 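Note: spheroids exposed to compound for 7 days before readout.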
# 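Throughout, for viability, T/C: 100% = DMSO vehicle control luminescence.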
smiles,measurement,setting,value
CC1(C)CCC(Nc2ncc(C(F)(F)F)c(-c3c[nH]c4c(P(C)(C)=O)c(C#N)ccc34)n2)CN1 (centres undefined) + C=CC(=O)N1CCN(c2nc(OCC3CCCN3C)nc3c(F)c(-c4nc(N)cc(C)c4C(F)(F)F)c(Cl)cc23)C(C)C1,IC50,second compound 0.00316 µM,> 300 nM
same,IC50,second compound 0.01 µM,> 300 nM
same,IC50,second compound 0.0316 µM,> 300 nM
same,IC50,second compound 0.1 µM,> 300 nM
same,IC50,second compound 0.316 µM,> 300 nM
same,IC50,second compound 1 µM,> 300 nM
same,"viability, T/C",[1],102%
same,"viability, T/C",[2],101%
same,"viability, T/C",[3],97%
same,"viability, T/C",[4],85%
same,"viability, T/C",[5],95.5%
same,"viability, T/C",[6],88.1%
same,"viability, T/C",[7],101%
same,"viability, T/C",[8],95.7%
same,"viability, T/C",[9],93.7%
same,"viability, T/C",[10],99.7%
same,"viability, T/C",[11],89.2%
same,"viability, T/C",[12],87.5%
same,"viability, T/C",[13],102%
same,"viability, T/C",[14],100%
same,"viability, T/C",[15],89.8%
same,"viability, T/C",[16],103%
same,"viability, T/C",[17],97.8%
same,"viability, T/C",[18],96.2%
same,"viability, T/C",[19],98.4%
same,"viability, T/C",[20],99.8%
same,"viability, T/C",[21],96.8%
same,"viability, T/C",[22],84.7%
same,"viability, T/C",[23],99.6%
same,"viability, T/C",[24],87.8%
same,"viability, T/C",[25],110%
same,"viability, T/C",[26],97.6%
same,"viability, T/C",[27],102%
same,"viability, T/C",[28],95.7%
same,"viability, T/C",[29],94.1%
same,"viability, T/C",[30],92.4%
same,"viability, T/C",[31],91.1%
same,"viability, T/C",[32],105%
same,"viability, T/C",[33],105%
same,"viability, T/C",[34],104%
same,"viability, T/C",[35],94.9%
same,"viability, T/C",[36],85%
CCc1c2c(nc3ccc(O)cc13)-c1cc3c(c(=O)n1C2)COC(=O)[C@]3(O)CC + C=CC(=O)N1CCN(c2nc(OCC3CCCN3C)nc3c(F)c(-c4nc(N)cc(C)c4C(F)(F)F)c(Cl)cc23)C(C)C1,IC50,second compound 0.00316 µM,98.4 nM
same,IC50,second compound 0.01 µM,119 nM
same,IC50,second compound 0.0316 µM,86.1 nM
same,IC50,second compound 0.1 µM,74.8 nM
same,IC50,second compound 0.316 µM,97.2 nM
same,IC50,second compound 1 µM,96.3 nM
same,"viability, T/C",[1],103%
same,"viability, T/C",[2],97.2%
same,"viability, T/C",[3],78%
same,"viability, T/C",[4],67.3%
same,"viability, T/C",[5],53.7%
same,"viability, T/C",[6],29.9%
same,"viability, T/C",[7],110%
same,"viability, T/C",[8],95.5%
same,"viability, T/C",[9],81.4%
same,"viability, T/C",[10],72%
same,"viability, T/C",[11],58.3%
same,"viability, T/C",[12],31.9%
same,"viability, T/C",[13],99.9%
same,"viability, T/C",[14],98.8%
same,"viability, T/C",[15],80.2%
same,"viability, T/C",[16],65.2%
same,"viability, T/C",[17],51.4%
same,"viability, T/C",[18],23.3%
same,"viability, T/C",[19],102%
same,"viability, T/C",[20],93.3%
same,"viability, T/C",[21],74.4%
same,"viability, T/C",[22],61.3%
same,"viability, T/C",[23],51%
same,"viability, T/C",[24],27.2%
same,"viability, T/C",[25],106%
same,"viability, T/C",[26],92.7%
same,"viability, T/C",[27],82.4%
same,"viability, T/C",[28],67%
same,"viability, T/C",[29],50.5%
same,"viability, T/C",[30],32.7%
same,"viability, T/C",[31],107%
same,"viability, T/C",[32],103%
same,"viability, T/C",[33],75.8%
same,"viability, T/C",[34],68.1%
same,"viability, T/C",[35],55.2%
same,"viability, T/C",[36],28.8%
